Source: ChEMBL document CHEMBL2176918, “Design and optimization of pyrazinecarboxamide-based inhibitors of diacylglycerol acyltransferase 1 (DGAT1) leading to a clinical candidate dimethylpyrazinecarboxamide phenylcyclohexylacetic acid (AZD7687)” (J Med Chem, 2012)

Assays:
[1] = biological target: T1, Diacylglycerol O-acyltransferase 1 (Rattus norvegicus, UniProt Q9ERM3); test: Inhibition of DGAT1 in rat adipose tissue assessed as reduction in triacylglycerol synthesis; format: tissue-based
T1 sequence (Q9ERM3 whole entry): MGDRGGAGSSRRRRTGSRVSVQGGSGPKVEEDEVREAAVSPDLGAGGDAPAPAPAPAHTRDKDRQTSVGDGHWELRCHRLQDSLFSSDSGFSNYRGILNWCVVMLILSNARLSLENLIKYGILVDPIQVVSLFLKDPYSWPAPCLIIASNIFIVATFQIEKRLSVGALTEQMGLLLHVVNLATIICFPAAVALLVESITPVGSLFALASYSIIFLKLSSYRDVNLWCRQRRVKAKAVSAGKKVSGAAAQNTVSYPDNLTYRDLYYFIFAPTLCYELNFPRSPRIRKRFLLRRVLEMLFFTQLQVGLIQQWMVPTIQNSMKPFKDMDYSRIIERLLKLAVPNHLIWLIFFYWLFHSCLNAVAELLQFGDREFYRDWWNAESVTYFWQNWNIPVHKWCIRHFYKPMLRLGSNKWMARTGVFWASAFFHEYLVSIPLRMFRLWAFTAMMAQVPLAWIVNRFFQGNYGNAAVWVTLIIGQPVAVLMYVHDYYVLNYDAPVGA

[2] = Intrinsic clearance in dog hepatocytes assessed as parent compound disappearance at 1 uM per 10^6 cells; format: ADME, cell-based, Canis lupus familiaris, Hepatocyte; conditions: read-out: CLH
Cytochrome P450 2D6 = Cytochrome P450 2D6 (Homo sapiens, UniProt P10635); test: Inhibition of CYP2D6; format: ADME
[3] = biological target: T2, Sterol O-acyltransferase 2 (Homo sapiens, UniProt O75908); test: Inhibition of human ACAT2 by liquid scintillography
T2 sequence (O75908 whole entry): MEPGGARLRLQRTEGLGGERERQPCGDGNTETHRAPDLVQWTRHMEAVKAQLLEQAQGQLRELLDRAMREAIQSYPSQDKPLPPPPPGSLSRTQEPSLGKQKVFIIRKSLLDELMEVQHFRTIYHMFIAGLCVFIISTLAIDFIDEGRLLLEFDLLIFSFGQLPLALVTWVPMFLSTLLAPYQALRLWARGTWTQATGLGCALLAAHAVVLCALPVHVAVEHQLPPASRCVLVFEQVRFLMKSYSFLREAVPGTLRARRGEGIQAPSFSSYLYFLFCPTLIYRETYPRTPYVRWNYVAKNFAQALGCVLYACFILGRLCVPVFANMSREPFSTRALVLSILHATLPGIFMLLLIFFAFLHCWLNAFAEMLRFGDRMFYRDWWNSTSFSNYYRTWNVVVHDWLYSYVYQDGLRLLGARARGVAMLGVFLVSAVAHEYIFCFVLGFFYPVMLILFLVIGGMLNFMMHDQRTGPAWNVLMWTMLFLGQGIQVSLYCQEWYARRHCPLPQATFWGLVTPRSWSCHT

[4] = Apparent permeability from apical to basolateral side in MDCK cells at pH 7.4; conditions: dog
[5] = Photostability stability by Hanau sun test; format: physicochemical
[6] = Volume of distribution in Han-Wistar rat at 5.4 uM/kg, po or 2.7 uM/kg, iv; format: ADME, organism-based; conditions: in vivo

Sequence of Cytochrome P450 2D6 (P10635 whole entry): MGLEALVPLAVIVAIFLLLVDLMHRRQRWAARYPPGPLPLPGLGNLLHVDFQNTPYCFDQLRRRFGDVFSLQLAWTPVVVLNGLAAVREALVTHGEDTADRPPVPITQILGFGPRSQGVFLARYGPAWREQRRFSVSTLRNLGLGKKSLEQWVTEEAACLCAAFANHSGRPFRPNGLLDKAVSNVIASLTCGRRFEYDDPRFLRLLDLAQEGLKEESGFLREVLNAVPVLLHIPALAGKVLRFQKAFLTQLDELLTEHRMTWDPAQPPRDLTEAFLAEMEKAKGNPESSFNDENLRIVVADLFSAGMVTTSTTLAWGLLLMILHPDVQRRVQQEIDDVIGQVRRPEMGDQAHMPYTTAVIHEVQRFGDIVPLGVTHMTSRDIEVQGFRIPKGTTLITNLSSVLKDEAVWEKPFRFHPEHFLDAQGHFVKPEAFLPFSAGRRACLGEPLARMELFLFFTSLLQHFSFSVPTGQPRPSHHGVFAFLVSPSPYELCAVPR

Compound: Cc1nc(C)c(-c2ccc(C3CCC(CC(=O)O)CC3)cc2)nc1C(N)=O (configuration not stated) [AZD-7687]
- IC50 [1]: 0.09 µM
- hepatocyte CLint at 1 µM [2]: 5.5 µL/min/1e6 cells
- IC50 (Cytochrome P450 2D6): > 30 µM
- IC50 [3]: > 10 µM
- Papp A→B [4]: 12 ×10⁻⁶ cm/s
- half-life [5]: 7.6 h
- Vd [6]: 0.35 L/kg
